According to US11964980B2, “Crystalline forms of (S)-1-(4-fluorophenyl)-1-(2-(4-(6-(1-methyl-1H-pyrazol-4-yl)pyrrolo[2,1- f][1,2,4]triazin-4-yl)piperazinyl)-pyrimidin-5-yl)ethan-1-amine and methods of making” (Blueprint Medicines Corporation, priority 2019, dated 2024):
Values after ≈ are worked out from the molar mass of the structure shown.

How the values were obtained:
[1] = XRPD of solids recovered from the solubility slurries; format: physicochemical; details: 37° C.; for Stability of crystalline form upon slurrying (XRPD): overnight
Protocol: XRPD: X-ray powder diffraction was done using a Rigaku MiniFlex 600. Samples were prepared on Si zero-return wafers. Typical scans were obtained from 20 of 4 to 30 degrees, with step size 0.05 degrees over five minutes with 40 kV and 15 mA. High resolution scans were obtained from 20 of 4 to 40 degrees, with step size 0.05 degrees over thirty minutes with 40 kV and 15 mA. Typical parameters for XRPD are listed below.
Solids were recovered from the slurries for analysis by XRPD. Crystalline Form H was stable upon slurrying in all solutions. Crystalline Form Tr was stable upon slurrying in water.

[2] = for Solubility, FaSSGF: pH 1.67; for Solubility, FaSSIF: pH 6.57
Protocol: Fasted simulated intestinal fluid (FaSSIF) (pH=6.57) was prepared by dissolving NaOH pellets (0.105 g), NaH2PO4·H2O (0.9875 g), and NaCl (1.5475 g) in distilled water (225 mL) and adjusting the pH to 6.57 by adding 1 N NaOH solution and 1 N HCl. Water was then added to a volume of 250 mL to produce phosphate buffer. Biorelevant powder (0.56 g) was dissolved in the phosphate buffer (125 mL), then made up to 250 mL using phosphate buffer. The prepared solution was left standing for 2 hours and then used for solubility measurements.
Fasted simulated gastric fluid (FaSSGF) (pH=1.67) was prepared by dissolving NaCl (0.5 g) in distilled water (225 mL). The pH was adjusted to 1.67 using 1 N HCl, then the solution was made up to 250 mL using distilled water to produce NaCl/HCl solution. Biorelevant powder (0.015 g) was dissolved in NaCl/HCl solution (125 mL), then made up to 250 mL using NaCl/HCl solution. The prepared solution was ready for use.
Solubility of crystalline Form A and a mixture of crystalline Form A and crystalline Form C was measured in fasted simulated intestinal fluid (FaSSIF), fasted simulated gastric fluid (FaSSGF), and water at 37° C. Thin slurries were stirred overnight and then supernatant was collected for HPLC analysis.
Solubility of crystalline Form H of a hydrochloride salt of Compound (I), crystalline Form Tr of a tartrate salt of Compound (I), and crystalline Form T of a tosylate salt of Compound (I) was measured in fasted state simulated intestinal fluid (FaSSIF), fasted state simulated gastric fluid (FaSSGF), and water at 37° C. About 1.5 mL solution was stirred at 37° C. The salt was then added incrementally until a thin slurry was formed, followed by stirring overnight. The solids were allowed to settle, and the pH of the supernatant was taken. Supernatant was recovered for injection to HPLC and solids were recovered for XRPD.
Solubility was determined based on interpolation from a calibration curve prepared using freebase.

[3] = Dynamic vapor sorption (DVS); format: physicochemical
Protocol: DVS: Dynamic Vapor Sorption (DVS) was performed using a DVS Intrinsic 1. The sample was loaded into a sample pan and suspended from a microbalance. A typical sample mass for DVS measurement was 25 mg. Nitrogen gas bubbled through distilled water provided the desired relative humidity. A typical measurement comprised the following steps: • 1. Equilibrate at 50% RH • 2. 50% to 2%. (50%, 40%, 30%, 20%, 10%, and 2%) • a. Hold minimum of 5 minutes and maximum of 60 minutes at each humidity. The pass criteria was less than 0.002% change; • 3. 2% to 95% (2%, 10%, 20%, 30%, 40%, 50%, 60%, 70%, 80%, 90%, 95%) • a. Hold minimum of 5 minutes and maximum of 60 minutes at each humidity. The pass criteria was less than 0.002% change; • 4. 95% to 2% (95%, 80%, 70%, 60%, 50%, 40%, 30%, 20%, 10%, 2%) • a. Hold minimum of 5 minutes and maximum of 60 minutes at each humidity. The pass criteria was less than 0.002% change; • 5. 2% to 50% (2%, 10%, 20%, 30%, 40%, 50%) • a. Hold minimum of 5 minutes and maximum of 60 minutes at each humidity. The pass criteria was less than 0.002% change.

patients = test: Clinical trials employing crystalline Form A: adverse effects; format: in vivo, human
Text: In clinical trials employing crystalline Form A of Compound (I), adverse effects were categorized by severity into Grades 1-5. Most adverse events reported were Grade 1 or 2, indicating crystalline Form A of Compound (I) is well-tolerated. […] Severe dose limiting toxicities for other TKIs may be a result of inhibiting a broad range of kinases.

[4] = Stability comparison of the crystalline forms; format: physicochemical; details: ambient temperature

## Cn1cc(-c2cc3c(N4CCN(c5ncc([C@@](C)(N)c6ccc(F)cc6)cn5)CC4)ncnn3c2)cn1 [crystalline Form H]
[1]; all solutions (FaSSIF, FaSSGF, water)
  Stability of crystalline form upon slurrying (XRPD): stable
[2]
  Solubility, FaSSGF: 4180 µg/mL (≈ 8.38 mM)
  Solubility, FaSSIF: 100 µg/mL (≈ 0.201 mM)
[3]; 2-95% RH at room temperature
  Weight change in DVS experiment: 15%
[3]; 80-95% RH at room temperature
  Weight change in DVS experiment: 10.8%

## Cn1cc(-c2cc3c(N4CCN(c5ncc([C@@](C)(N)c6ccc(F)cc6)cn5)CC4)ncnn3c2)cn1 [crystalline Form Tr]
[1]; FaSSGF
  Stability of crystalline form upon slurrying (XRPD): converted into crystalline Form H
[1]; FaSSIF
  Behaviour of solid in slurry: gummed
[1]; water
  Stability of crystalline form upon slurrying (XRPD): stable
[2]
  Solubility, FaSSGF: 4790 µg/mL (≈ 9.61 mM)
  Solubility, FaSSIF: 270 µg/mL (≈ 0.542 mM)
[3]; 2-95% RH at room temperature
  Weight change in DVS experiment: 4.4%

## Cn1cc(-c2cc3c(N4CCN(c5ncc([C@@](C)(N)c6ccc(F)cc6)cn5)CC4)ncnn3c2)cn1 [crystalline Form A, (S)-1-(4-fluorophenyl)-1-(2-(4-(6-(1-methyl-1H-pyrazol-4-yl)pyrrolo[2,1-f][1,2,4]triazin-4-yl)piperazin-1-yl)pyrimidin-5-yl)ethan-1-amine]
[2]
  Solubility, FaSSGF: 2110 µg/mL (≈ 4.23 mM)
patients
  Severe dose limiting toxicities observed for other TKIs (dermatologic, hepatic, cardiovascular): did not exhibit
patients; Grades 1-5
  Severity grade of most adverse events reported: Grade 1 or 2
[3]
  Hygroscopicity by DVS analysis: non-hygroscopic
[3]; 2-95% RH at 25° C.
  Weight change in DVS experiment: 0.42%
[3]; 2-95% RH at 40° C.
  Weight change in DVS experiment: 0.29%
[3]; 70-95% RH at 40° C.
  Weight change in DVS experiment: 0.20%
[3]; exposed to 40° C. and up to 95% relative humidity
  Moisture uptake by weight: up to 0.44%
[4]
  Stability relative to the other crystalline forms: more stable

## Cn1cc(-c2cc3c(N4CCN(c5ncc([C@@](C)(N)c6ccc(F)cc6)cn5)CC4)ncnn3c2)cn1 [crystalline Form T]
[2]
  Solubility, FaSSGF: 1880 µg/mL (≈ 3.77 mM)
  Solubility, FaSSIF: 80 µg/mL (≈ 0.16 mM)

## Cn1cc(-c2cc3c(N4CCN(c5ncc([C@@](C)(N)c6ccc(F)cc6)cn5)CC4)ncnn3c2)cn1 [crystalline Form C, (S)-1-(4-fluorophenyl)-1-(2-(4-(6-(1-methyl-1H-pyrazol-4-yl)pyrrolo[2,1-f][1,2,4]triazin-4-yl)piperazin-1-yl)pyrimidin-5-yl)ethan-1-amine]
[2]
  Solubility, FaSSGF: 2720 µg/mL (≈ 5.46 mM)
  Solubility, FaSSIF: 30 µg/mL (≈ 0.0602 mM)
[3]; 2-10% RH at 25° C.
  Weight change in DVS experiment: 1.76%
[3]; 2-10% RH at 40° C.
  Weight change in DVS experiment: 1.93%
[3]; 2-95% RH at 25° C.
  Weight change in DVS experiment: 2.90%
[3]; 2-95% RH at 40° C.
  Weight change in DVS experiment: 2.99%
